What was measured:
VEGFR2 = biological target: T1, VEGFR2 (Homo sapiens, UniProt P35968); assay: Kinome screen, VEGFR2; type: binding; details: screened at 1 μM
T1 construct: made in house; host or cells: E. coli BL21-derived host (T7 phage) or HEK-293 cells
Method: (§1) Compounds 1 and C-1 were screened against other kinases to evaluate their selectivity profile.
(§2) Kinase-tagged T7 phage strains were grown in parallel in 24-well blocks in an E. coli host derived from the BL21 strain. E. coli were grown to log-phase and infected with T7 phage from a frozen stock (multiplicity of infection=0.4) and incubated with shaking at 32° C. until lysis (90-150 minutes). The lysates were centrifuged (6,000×g) and filtered (0.2 μm) to remove cell debris. The remaining kinases were produced in HEK-293 cells and subsequently tagged with DNA for qPCR detection.
(§3) Streptavidin-coated magnetic beads were treated with biotinylated small molecule ligands for 30 minutes at room temperature to generate affinity resins for kinase assays. The liganded beads were blocked with excess biotin and washed with blocking buffer (SeaBlock (Pierce), 1% BSA, 0.05% Tween 20, 1 mM DTT) to remove unbound ligand and to reduce non-specific phage binding. Binding reactions were assembled by combining kinases, liganded affinity beads, and test compounds in 1× binding buffer (20% SeaBlock, 0.17×PBS, 0.05% Tween 20, 6 mM DTT). Test compounds were prepared as 40× stocks in 100% DMSO and directly diluted into the assay. All reactions were performed in polypropylene 384-well plates in a final volume of 0.04 ml. […] The kinase concentration in the eluates was measured by qPCR. […]

ALK = biological target: T2, ALK (Homo sapiens, UniProt Q9UM73); assay: Kinome screen, ALK; type: binding; details: screened at 1 μM
T2 construct: made in house; host or cells: E. coli BL21-derived host (T7 phage) or HEK-293 cells
Method: as §1, §2, §3

CSF1R = biological target: T3, CSF1R (Homo sapiens, UniProt P07333); assay: Kinome screen, CSF1R; type: binding; details: screened at 1 μM
T3 construct: made in house; host or cells: E. coli BL21-derived host (T7 phage) or HEK-293 cells
Method: as §1, §2, §3

PKAC-ALPHA = biological target: T4, PKAC-ALPHA (Homo sapiens, UniProt P17612); assay: Kinome screen, PKAC-ALPHA; type: binding; details: screened at 1 μM
T4 construct: made in house; host or cells: E. coli BL21-derived host (T7 phage) or HEK-293 cells
Method: as §1, §2, §3

CDK9 = biological target: T5, CDK9 (Homo sapiens, UniProt P50750); assay: Kinome screen, CDK9; type: binding; details: screened at 1 μM
T5 construct: made in house; host or cells: E. coli BL21-derived host (T7 phage) or HEK-293 cells
Method: as §1, §2, §3

AURKA = biological target: T6, AURKA (Homo sapiens, UniProt O14965); assay: Kinome screen, AURKA; type: binding; details: screened at 1 μM
T6 construct: made in house; host or cells: E. coli BL21-derived host (T7 phage) or HEK-293 cells
Method: as §1, §2, §3

GSK3B = biological target: T7, GSK3B (Homo sapiens, UniProt P49841); assay: Kinome screen, GSK3B; type: binding; details: screened at 1 μM
T7 construct: made in house; host or cells: E. coli BL21-derived host (T7 phage) or HEK-293 cells
Method: as §1, §2, §3

SRC = biological target: T8, SRC (Homo sapiens, UniProt P12931); assay: Kinome screen, SRC; type: binding; details: screened at 1 μM
T8 construct: made in house; host or cells: E. coli BL21-derived host (T7 phage) or HEK-293 cells
Method: as §1, §2, §3

[1] = system: BEAS-2B human lung epithelial cells; assay: CellTiter-Glo cell viability/cytotoxicity assay; type: cell-based; details: BEAS-2B cells; 48 h; 15% inhibition threshold
Method: A CellTiter-Glo luminescent cell viability/cytotoxicity assay was carried out in BEAS-2B human lung epithelial cells (ATCC) under the normal growth condition.
Cells were grown at 37° C. in a 5% CO2 humidified incubator in 50% DMEM/50% F-12 medium (Life Technologies) supplemented with 10% FBS (Hyclone), 100 U/mL penicillin, 100 μg/mL streptomycin (Life Technologies), and 2 mM GlutaMAX (Life Technologies). On day 1 of the assay, cells were seeded at a 500 cells/well density in white 384-well tissue culture plates (Corning) with 25 μL medium, and were allowed to adhere overnight in the incubator. On day 2 of the assay, 5 μL of medium containing dose-responses of test compounds was added, and incubated at 37° C. for 48 h. 30 μL of CellTiter-Glo detection solution (Promega) was subsequently added, mixed on an orbital shaker for 5 min, and incubated for additional 10 min before being read on the EnVision reader. Luminescence signals were recorded and percent DMSO control values were calculated.
For dose-response analysis, percent DMSO control data were plotted vs. compound concentrations to derive dose-response curves by line connecting each data point. The concentration at which each curve crosses the 15% inhibition threshold is defined as CC15.

CDK2 = biological target: T9, CDK2 (Homo sapiens, UniProt P24941); assay: Kinome screen, CDK2; type: binding; details: screened at 1 μM
T9 construct: made in house; host or cells: E. coli BL21-derived host (T7 phage) or HEK-293 cells
Method: as §1, §2, §3

EPHB6 = biological target: T10, EPHB6 (Homo sapiens, UniProt O15197); assay: Kinome screen, EPHB6; type: binding; details: screened at 1 μM
T10 construct: made in house; host or cells: E. coli BL21-derived host (T7 phage) or HEK-293 cells
Method: as §1, §2, §3

PAK4 = biological target: T11, PAK4 (Homo sapiens, UniProt O96013); assay: Kinome screen, PAK4; type: binding; details: screened at 1 μM
T11 construct: made in house; host or cells: E. coli BL21-derived host (T7 phage) or HEK-293 cells
Method: as §1, §2, §3

CSNK1D = biological target: T12, CSNK1D (Homo sapiens, UniProt P48730); assay: Kinome screen, CSNK1D; type: binding; details: screened at 1 μM
T12 construct: made in house; host or cells: E. coli BL21-derived host (T7 phage) or HEK-293 cells
Method: as §1, §2, §3

PLK4 = biological target: T13, PLK4 (Homo sapiens, UniProt O00444); assay: Kinome screen, PLK4; type: binding; details: screened at 1 μM
T13 construct: made in house; host or cells: E. coli BL21-derived host (T7 phage) or HEK-293 cells
Method: as §1, §2, §3

CDK7 = biological target: T14, CDK7 (Homo sapiens, UniProt P50613); assay: Kinome screen, CDK7; type: binding; details: screened at 1 μM
T14 construct: made in house; host or cells: E. coli BL21-derived host (T7 phage) or HEK-293 cells
Method: as §1, §2, §3

SYK = biological target: T15, SYK (Homo sapiens, UniProt P43405); assay: Kinome screen, SYK; type: binding; details: screened at 1 μM
T15 construct: made in house; host or cells: E. coli BL21-derived host (T7 phage) or HEK-293 cells
Method: as §1, §2, §3

KIT = biological target: T16, KIT (Homo sapiens, UniProt P10721); assay: Kinome screen, KIT; type: binding; details: screened at 1 μM
T16 construct: made in house; host or cells: E. coli BL21-derived host (T7 phage) or HEK-293 cells
Method: as §1, §2, §3

SLK = biological target: T17, SLK (Homo sapiens, UniProt Q9H2G2); assay: Kinome screen, SLK; type: binding; details: screened at 1 μM
T17 construct: made in house; host or cells: E. coli BL21-derived host (T7 phage) or HEK-293 cells
Method: as §1, §2, §3

T7 sequence (P49841 whole entry): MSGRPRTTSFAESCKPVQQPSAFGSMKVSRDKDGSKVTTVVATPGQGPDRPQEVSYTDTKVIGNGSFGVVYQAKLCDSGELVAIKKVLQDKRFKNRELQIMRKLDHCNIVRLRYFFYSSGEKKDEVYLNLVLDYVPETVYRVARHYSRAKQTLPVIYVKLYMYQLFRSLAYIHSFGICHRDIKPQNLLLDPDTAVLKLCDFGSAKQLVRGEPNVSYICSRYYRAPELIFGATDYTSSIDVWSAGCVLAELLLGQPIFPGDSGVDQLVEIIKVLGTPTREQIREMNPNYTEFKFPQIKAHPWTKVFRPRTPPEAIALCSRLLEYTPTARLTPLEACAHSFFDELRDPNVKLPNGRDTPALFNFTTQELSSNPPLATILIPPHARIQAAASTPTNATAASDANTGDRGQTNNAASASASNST
T12 sequence (P48730 whole entry): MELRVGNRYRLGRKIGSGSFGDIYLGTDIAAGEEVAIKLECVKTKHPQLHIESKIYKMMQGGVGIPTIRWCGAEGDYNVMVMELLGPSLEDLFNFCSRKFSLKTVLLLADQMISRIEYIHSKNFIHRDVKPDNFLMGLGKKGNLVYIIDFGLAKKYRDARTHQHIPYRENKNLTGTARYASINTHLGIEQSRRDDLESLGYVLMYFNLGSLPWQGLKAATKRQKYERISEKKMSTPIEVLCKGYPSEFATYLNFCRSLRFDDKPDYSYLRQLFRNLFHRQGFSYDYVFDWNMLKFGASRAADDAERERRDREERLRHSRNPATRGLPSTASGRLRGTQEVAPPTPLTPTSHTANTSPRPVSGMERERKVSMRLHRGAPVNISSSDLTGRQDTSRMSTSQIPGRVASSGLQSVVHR
T6 sequence (O14965 whole entry): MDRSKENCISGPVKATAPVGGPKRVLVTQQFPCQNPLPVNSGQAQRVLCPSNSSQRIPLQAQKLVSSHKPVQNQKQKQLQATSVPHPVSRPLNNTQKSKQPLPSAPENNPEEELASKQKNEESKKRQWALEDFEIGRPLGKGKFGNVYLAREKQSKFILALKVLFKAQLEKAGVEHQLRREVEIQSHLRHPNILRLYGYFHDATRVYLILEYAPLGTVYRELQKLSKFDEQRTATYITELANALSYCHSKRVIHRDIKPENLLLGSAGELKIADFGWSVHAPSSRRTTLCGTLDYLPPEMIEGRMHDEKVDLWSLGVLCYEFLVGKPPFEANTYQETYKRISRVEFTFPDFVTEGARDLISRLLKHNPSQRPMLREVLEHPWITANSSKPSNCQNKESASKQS
T2 sequence (Q9UM73 19-1620): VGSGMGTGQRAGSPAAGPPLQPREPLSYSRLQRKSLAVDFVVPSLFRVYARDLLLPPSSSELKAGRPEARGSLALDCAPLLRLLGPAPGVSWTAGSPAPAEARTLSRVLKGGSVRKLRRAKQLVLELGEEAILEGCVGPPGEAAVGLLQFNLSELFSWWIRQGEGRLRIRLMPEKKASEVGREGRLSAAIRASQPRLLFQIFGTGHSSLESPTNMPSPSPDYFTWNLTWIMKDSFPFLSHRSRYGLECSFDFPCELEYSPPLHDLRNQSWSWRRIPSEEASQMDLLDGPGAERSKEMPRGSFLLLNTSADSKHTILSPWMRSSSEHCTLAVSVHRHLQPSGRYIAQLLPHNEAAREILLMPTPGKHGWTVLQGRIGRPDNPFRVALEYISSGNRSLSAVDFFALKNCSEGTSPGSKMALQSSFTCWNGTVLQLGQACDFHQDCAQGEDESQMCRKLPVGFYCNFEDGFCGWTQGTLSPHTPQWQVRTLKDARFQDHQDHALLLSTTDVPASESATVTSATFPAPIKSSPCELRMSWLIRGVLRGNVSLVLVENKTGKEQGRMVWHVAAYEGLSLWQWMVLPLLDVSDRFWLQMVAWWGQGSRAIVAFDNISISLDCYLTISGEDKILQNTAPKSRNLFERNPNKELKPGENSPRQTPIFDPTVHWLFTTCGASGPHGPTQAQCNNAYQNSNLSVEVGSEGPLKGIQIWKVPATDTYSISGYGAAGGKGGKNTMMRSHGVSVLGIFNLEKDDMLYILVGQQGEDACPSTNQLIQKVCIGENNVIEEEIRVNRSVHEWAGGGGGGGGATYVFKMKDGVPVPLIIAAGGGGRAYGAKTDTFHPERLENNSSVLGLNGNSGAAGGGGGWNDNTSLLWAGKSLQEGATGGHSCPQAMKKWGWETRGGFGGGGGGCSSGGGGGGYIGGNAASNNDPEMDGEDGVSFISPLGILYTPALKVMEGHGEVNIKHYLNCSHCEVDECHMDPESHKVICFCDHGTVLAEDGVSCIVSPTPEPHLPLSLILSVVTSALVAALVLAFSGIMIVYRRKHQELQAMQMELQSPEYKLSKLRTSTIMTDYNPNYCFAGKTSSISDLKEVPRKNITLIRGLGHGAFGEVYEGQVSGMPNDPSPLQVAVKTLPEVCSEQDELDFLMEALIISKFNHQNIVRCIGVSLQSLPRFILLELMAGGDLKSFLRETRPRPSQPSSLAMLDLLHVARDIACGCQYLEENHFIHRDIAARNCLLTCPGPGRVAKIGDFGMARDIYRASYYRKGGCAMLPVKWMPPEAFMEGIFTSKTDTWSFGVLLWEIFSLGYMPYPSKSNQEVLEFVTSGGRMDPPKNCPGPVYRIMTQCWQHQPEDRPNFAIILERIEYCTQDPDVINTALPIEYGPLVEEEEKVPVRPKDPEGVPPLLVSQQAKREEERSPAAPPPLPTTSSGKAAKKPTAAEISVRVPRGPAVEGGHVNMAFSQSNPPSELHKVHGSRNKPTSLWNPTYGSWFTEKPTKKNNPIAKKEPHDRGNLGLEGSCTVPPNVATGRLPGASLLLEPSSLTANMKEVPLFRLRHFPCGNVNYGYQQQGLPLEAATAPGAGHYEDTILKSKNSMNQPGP
T16 sequence (P10721 26-976): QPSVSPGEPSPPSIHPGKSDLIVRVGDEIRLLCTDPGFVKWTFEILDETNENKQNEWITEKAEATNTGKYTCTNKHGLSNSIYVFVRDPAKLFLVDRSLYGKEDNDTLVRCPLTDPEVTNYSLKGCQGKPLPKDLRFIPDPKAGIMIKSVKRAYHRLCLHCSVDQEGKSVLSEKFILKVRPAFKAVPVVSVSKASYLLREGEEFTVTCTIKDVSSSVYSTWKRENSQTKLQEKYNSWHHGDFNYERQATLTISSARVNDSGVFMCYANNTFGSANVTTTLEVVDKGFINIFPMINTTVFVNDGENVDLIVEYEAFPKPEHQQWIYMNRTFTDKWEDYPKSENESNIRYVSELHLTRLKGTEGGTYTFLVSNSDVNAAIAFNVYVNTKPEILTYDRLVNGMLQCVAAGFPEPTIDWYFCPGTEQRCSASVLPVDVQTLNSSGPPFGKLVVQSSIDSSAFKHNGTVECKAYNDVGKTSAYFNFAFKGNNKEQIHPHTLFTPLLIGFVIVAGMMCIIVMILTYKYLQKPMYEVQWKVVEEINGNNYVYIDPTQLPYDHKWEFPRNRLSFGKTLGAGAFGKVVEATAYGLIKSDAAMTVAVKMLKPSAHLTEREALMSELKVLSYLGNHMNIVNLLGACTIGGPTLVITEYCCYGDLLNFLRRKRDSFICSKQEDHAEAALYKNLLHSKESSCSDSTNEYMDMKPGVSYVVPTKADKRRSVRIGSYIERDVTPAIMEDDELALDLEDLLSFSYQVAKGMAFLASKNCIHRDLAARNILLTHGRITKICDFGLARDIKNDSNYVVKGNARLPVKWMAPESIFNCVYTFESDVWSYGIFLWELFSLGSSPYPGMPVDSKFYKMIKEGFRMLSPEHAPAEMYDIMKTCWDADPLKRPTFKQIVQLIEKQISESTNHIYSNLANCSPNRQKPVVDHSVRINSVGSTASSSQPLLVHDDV
T8 sequence (P12931 whole entry): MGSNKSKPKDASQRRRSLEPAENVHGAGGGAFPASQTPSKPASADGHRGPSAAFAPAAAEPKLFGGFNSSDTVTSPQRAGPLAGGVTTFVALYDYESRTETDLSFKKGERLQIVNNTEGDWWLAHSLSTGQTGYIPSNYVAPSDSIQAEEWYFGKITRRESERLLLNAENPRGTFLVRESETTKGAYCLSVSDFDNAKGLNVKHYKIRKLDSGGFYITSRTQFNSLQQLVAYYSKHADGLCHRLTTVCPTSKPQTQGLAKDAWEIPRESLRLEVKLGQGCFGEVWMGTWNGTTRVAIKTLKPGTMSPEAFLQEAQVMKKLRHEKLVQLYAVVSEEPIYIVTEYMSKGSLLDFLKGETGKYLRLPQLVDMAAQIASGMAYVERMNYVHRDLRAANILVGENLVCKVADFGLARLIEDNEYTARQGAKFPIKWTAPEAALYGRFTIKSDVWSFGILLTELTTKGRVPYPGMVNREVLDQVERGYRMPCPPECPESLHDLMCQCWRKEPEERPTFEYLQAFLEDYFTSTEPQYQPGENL
T11 sequence (O96013 whole entry): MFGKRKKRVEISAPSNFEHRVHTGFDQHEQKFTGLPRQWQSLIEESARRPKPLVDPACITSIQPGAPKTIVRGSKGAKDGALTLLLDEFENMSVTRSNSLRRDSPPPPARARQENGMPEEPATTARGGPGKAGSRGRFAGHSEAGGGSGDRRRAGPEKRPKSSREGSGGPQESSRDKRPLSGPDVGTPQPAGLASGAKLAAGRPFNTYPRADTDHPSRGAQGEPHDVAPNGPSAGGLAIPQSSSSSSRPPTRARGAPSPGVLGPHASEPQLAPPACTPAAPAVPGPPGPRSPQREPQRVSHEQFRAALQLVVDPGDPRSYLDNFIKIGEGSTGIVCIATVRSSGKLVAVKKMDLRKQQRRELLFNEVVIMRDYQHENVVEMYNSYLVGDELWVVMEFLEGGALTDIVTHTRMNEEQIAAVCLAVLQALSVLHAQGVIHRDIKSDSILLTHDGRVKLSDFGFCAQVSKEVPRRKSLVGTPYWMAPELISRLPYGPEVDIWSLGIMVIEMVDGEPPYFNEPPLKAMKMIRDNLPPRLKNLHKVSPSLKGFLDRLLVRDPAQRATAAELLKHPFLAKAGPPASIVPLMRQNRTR

inhibition at 1 µM (VEGFR2): 59%
inhibition at 1 µM (ALK): 87%
inhibition at 1 µM (CSF1R): 100%
inhibition at 1 µM (PKAC-ALPHA): 55%
inhibition at 1 µM (CDK9): 89%
inhibition at 1 µM (AURKA): 54%
inhibition at 1 µM (GSK3B): 52%
inhibition at 1 µM (SRC): 98.9%
inhibition at 1 µM (CDK2): 50%
inhibition at 1 µM (EPHB6): 96.5%
inhibition at 1 µM (PAK4): 89%
inhibition at 1 µM (CSNK1D): 66%
inhibition at 1 µM (PLK4): 40%
inhibition at 1 µM (CDK7): 98.8%
inhibition at 1 µM (SYK): 82%
inhibition at 1 µM (KIT): 98.5%
inhibition at 1 µM (SLK): 99.9%
Structure (SMILES): CCc1cc(O)c(F)cc1-c1ccc2c(-c3nc4c([nH]3)CCN(C(=O)[C@]35C[C@H]3CCN5)C4)n[nH]c2c1 [Compound C-1, ((1S,5R)-2-azabicyclo[3.1.0]hexan-1-yl)(2-(6-(2-ethyl-5-fluoro-4-hydroxyphenyl)-1H-indazol-3-yl)-1,4,6,7-tetrahydro-5H-imidazo[4,5-c]pyridin-5-yl)methanone, reference compound]
CC15 [1]: 1580 nM
pCC15 [1]: 5.8

From US10968222B2, “2-azabicyclo hexane JAK inhibitor compound” (THERAVANCE BIOPHARMA R&D IP, LLC, priority 2018, dated 2021)
